Read-outs that look alike come from different tables or passages of the source.

Consider three molecules from EP0811615A1, “1-Aryl-5-(substituted alkyl (thio) amido) pyrazoles and their use as pesticides” (RHONE-POULENC AGROCHIMIE, priority 1996, dated 1997).

What all share (assay type): in vivo
In one test the test system is twospotted spider mite. Kind of test: Twospotted spider mite test. Particulars: Tetranychus urticae, 144 h, read-out: control of mites. On the procedure:
Twospotted spider mite: Leaves infested with adult and nymphal stages of the two-spotted spider mite, obtained from a stock culture were placed on the primary leaves of two bean plants growing in a 6 cm. peat pot. A sufficient number of mites (150-200) for testing were transferred to the fresh plants within a period of twenty-four hours. The potted plants (one pot per compound) were placed on a revolving turntable and sprayed, sufficient to wet the plants to runoff, with 100 ml of the 100 ppm test compound formulation by use of a DeVilbiss spray gun set at 40 psig. air pressure. As an untreated control, 100 ml of the water-acetone-DMF-emulsifler solution, containing no test compound, were also sprayed on infested plants. A treated control with a commercial technical compound, either dicofol or hexythiazox, formulated in the same manner, was tested as a standard. The sprayed plants were held for six days, after which a mortality count of motile forms was made.

Test [1] has as its system southern root-knot nematode. Kind of test: Southern root-knot nematode soil test on tomato. Also noted: dose or concentration left out as unconfirmed. The note with it: Meloidogyne incognita; Soil Conc. at 21 Kg/ha; second stage juveniles; read-out: pest mortality Nema (J2). On the procedure:
For southern root-knot nematode and systemic tests for southern armyworm, cotton aphid, tobacco budworm and greenbug, a stock solution or suspension was prepared by adding 15 mg of the test compound to 250 mg of dimethylformamide, 1250 mg of acetone and 3 mg of the emulsifier blend referenced above. Water was then added to provide a test compound concentration of 150 ppm. When necessary, sonication was provided to insure complete dispersion.
Southern root-knot nematode: Infected roots of tomato plants, containing egg masses of southern root-knot nematode, were removed from a stock culture and cleaned of soil by shaking and washing with tap water. The nematode eggs were separated from the root tissue and rinsed with water. Samples of the egg suspension were placed on a fine screen over a receiving bowl, in which the water level was adjusted to be in contact with the screen. From the bowl, juveniles were collected on a fine screen. The bottom of a cone-shaped container was plugged with coarse vermiculite and then filled to within 1.5 cm of the top with about a 200 ml volume of pasteurized soil. Then into a hole made in the center of the soil in the cone was pipetted an aliquot of the 150 ppm test compound formulation. A treated control with a commercial technical compound, fenamifos, formulated in a similar manner, was tested as a standard. As an untreated control, an aliquot of a water-acetone-DMF-emulsifier solution, containing no test compound, was applied in a similar manner. Immediately after treatment of the soil with the test compound there were added to the top of each cone 1000 second stage juvenile southern root-knot nematodes. After 3 days, a single healthy tomato seedling was then transplanted into the cone. The cone, containing the infested soil and tomato seedling, was kept in the greenhouse for 3 weeks. At the termination of the test, […], […]

The subject of the next test is Mexican bean beetle. Put plainly: Mexican bean beetle foliar spray test on bean plants. Particulars: Epilachna varivestis, 120 h; foliar application at 100 ppm; second instar larvae, held five days; read-out: pest mortality MBB. On the procedure:
(§1) For mite, aphid, southern armyworm, Mexican bean beetle, and tobacco budworm tests, a solution or suspension was prepared by adding 10 mg of the test compound to a solution of 160 mg of dimethylformamide, 838 mg of acetone, 2 mg of a 3:1 ratio of Triton X-172 : Triton X-152 (respectively, mainly anionic and nonionic low foam emulsifiers which are each anhydrous blends of alkylaryl polyether alcohols with organic sulfonates), and […] of water. The result was a concentration of 100 ppm of the test compound.
(§2) Mexican bean beetle: Potted bean plants were placed on a revolving turntable and sprayed with 100 ml of the 100 ppm test compound formulation, sufficient to wet the plants to runoff, by use of a DeVilbiss spray gun set at 40 psig air pressure. As an untreated control, 100 ml of a water-acetone-DMF-emulsifier solution, containing no test compound, were also sprayed on plants. A treated control with a commercial technical compound, either cypermethrin or sulprofos, formulated in the same manner, was tested as a standard. When dry, the leaves were placed in plastic cups lined with moistened filter paper. Five randomly selected second instar Mexican bean beetle larvae were introduced into each cup which was closed and held for five days. Larvae which were unable to move the length of the body, even upon stimulation by prodding, were considered dead.

A further test deals with southern armyworm. Kind of test: Southern armyworm foliar spray test on bean plants. The note with it: Spodoptera eridania, 120 h; foliar application at 100 ppm; second instar larvae, held five days; read-out: pest mortality SAW. On the procedure:
as §1
as §2, with “Southern armyworm: Potted” for “Mexican bean beetle: Potted”, “bean plants,” for “bean plants”, “compound formulation” for “compound formulation, sufficient to wet the plants to runoff,”, “instar southern armyworm” for “instar Mexican bean beetle”

Another test deals with housefly. Put plainly: House fly bait test. The note with it: Musca domestica; bait application at 100 ppm; adult flies, after 24 hours; read-out: pest mortality HF. The text has this:
For housefly tests, the formulation was initially prepared in a similar manner to the above, but in 16.3 g of water with corresponding adjustment of other components, providing a 200 ppm concentration. Final dilution with an equal volume of a 20% by weight aqueous solution of sucrose provided a 100 ppm concentration of the test compound. When necessary, sonication was provided to insure complete dispersion.
House fly: Four to six day old adult house flies were reared according to the specifications of the Chemical Specialties Manufacturing Association (Blue Book, McNair-Dorland Co., N.Y. 1954; pages 243-244, 261) under controlled conditions. The flies were immobilized by anesthetizing with carbon dioxide and twenty five immobilized individuals, males and females, were transferred to a cage consisting of a standard food strainer and a wrapping-paper-covered surface. Ten ml of the 100 ppm test compound formulation were added to a soufflé cup containing an absorbent cotton pad. As an untreated control, 10 ml of a water-acetone-DMF-emulsifier-sucrose solution, containing no test compound, were applied in a similar manner. A treated control with a commercial technical compound, malathion, formulated in the same manner, was tested as a standard. The bait cup was introduced inside the food strainer prior to admitting the anesthetized flies.

A further test deals with tobacco budworm. Kind of test: Tobacco budworm foliar spray test on cotton plants. Particulars: Heliothis virescens, 120 h; foliar application at 100 ppm; second instar larvae, held five days; read-out: pest mortality TBW. On the procedure:
as §1
Tobacco budworm: Potted cotton plants were placed on a revolving turntable and sprayed with 100 ml of the 100 ppm test compound formulation by use of a DeVilbiss spray gun set at 40 psig air pressure. As an untreated control, 100 ml of a water-acetone-DMF-emulsifier solution, containing no test compound, were also sprayed on plants. A treated control with a commercial technical compound, either cypermethrin or sulprofos, formulated in the same manner, was tested as a standard. When dry, the leaves were placed in plastic dishes containing a piece of filter paper and a moistened dental wick. One randomly selected second instar tobacco budworm larva was then introduced into each cup which was closed and held for five days. Larvae unable to move the length of their body, even upon stimulation by prodding, were considered dead.

Consider `COC(C)C(=O)Nc1c([S+]([O-])C(F)(F)F)c(C#N)nn1-c1c(Cl)cc(C(F)(F)F)cc1Cl` (stereo not shown) [Compound 24], for which the mortality at 100 ppm in the test with twospotted spider mite (foliar) lay in the range of 30 to 70%; with Mexican bean beetle, 70 to 100%; with southern armyworm it was 70 to 100%; in the test with housefly, 70 to 100%. The mortality in test [1] lay within 70 to 100%.
As to `COCC(=O)Nc1c(SC(F)(Cl)Cl)c(C#N)nn1-c1c(Cl)cc(OC(F)(F)F)cc1Cl` [Compound 46], the mortality at 100 ppm was 30 to 70% with twospotted spider mite (100 ppm in foliar bait tests), 70 to 100% with tobacco budworm, 70 to 100% in the test with southern armyworm and 70 to 100% in the test with housefly.
For the molecule `COC(C)C(=O)Nc1c(SC(F)(Cl)Cl)c(C#N)nn1-c1c(Cl)cc(OC(F)(F)F)cc1Cl` (stereo not shown) [Compound 47], the mortality at 100 ppm in the test with twospotted spider mite (100 ppm in foliar bait tests) is 30 to 70%; in the test on tobacco budworm, 70 to 100%; with southern armyworm, 70 to 100%; in the test with housefly it was 70 to 100%.
